Data set [1] in a line: Pharmacokinetics of OC246 after single oral administration. Format: in vivo, female NMRI mice. The settings on record: single oral 50 mg/kg. Here is the method:
Pharmacokinetics were assessed for OC246 after single oral (p.o.) administration in female NMRI mice. The compound OC246 was suspended at 50 mg/kg with Lipoid S100 and Myritol 318. Oral dose was 50 mg/kg, Final Concentration 10 mg/ml and Administration Volume 5.0 ml/kg. Blood samples were taken from three mice at individual time points after 0.25, 0.5, 1, 2, 4, 6, 8, 16, and 24 hours from administration, and analyzed using HPLC and mass-spectroscopic bioanalytical methods.
obs: observed; tmax: time point at Cmax; tlast: time at last quantifiable concentration; Cmax: maximum observed concentration; Clast: last quantifiable concentration; SE: standard error; AUClast: area under the concentration-time curve (AUC) calculated with trapezoidal rule between dosing time to the last measurement time point with a conc. value above the lower limit of quantification; AUCinf(obs): AUC calculated using the trapezoidal rule from 0 hours to infinity; AUC % extrapol: percentage of AUCinf(obs) that is due to the extrapolation from tlast to infinity; Rsq: goodness of fit for the determination λz in the terminal elimination phase; λz(Lambda_z): terminal elimination rate constant (of at least three last measured concentrations); t1/2: apparent terminal elimination half-life; CLobs: observed total (systemic) body clearance; Vz_obs: apparent volume of distribution based on AUClast and λz.

The next data set concerns SiHa (ATCC HTB-35). The data set can be described thus: Monolayer SRB assay, SiHa. Format: cell-based. The settings on record: Homo sapiens, 72 hrs, HPV16. Here is the method: (§1) Various cell culture cells grown as monolayers are harvested from exponential growing cultures after treatment with various OC compounds at different concentrations. For this depending on the cell line, 10.000 to 30.000 cells were plated in 96-well flat-bottom microtiter plates. After a 24 h recovery period to allow cells to resume exponential growth, supernatants are discarded and 100 μl of culture medium (eight control wells/plate) or culture medium with the test compound are added by a liquid handling robotic system (Microlab® Starlet, Hamilton) and treatment continued for 72 hrs. Compounds are applied at 9 concentrations and eight wells/concentration). At least three independent experiments are performed. For SRB staining, cells are fixed with SRB01 (Tab. 5) for 1 h at 4° C. […] Optical density is assessed using a plate-reader (Sunrise, Tecan©) at 540 nm.
(§2) Concentrations required for half maximal response of the compound for cell growth inhibition (EC50) is calculated by non-linear regression (log[conc. of inhibitor] versus response (% T/C)) using the analysis software GraphPad Prism®, Prism 5 for windows, version 5.01 (GraphPad Software Inc., CA).
Background: The SRB assay estimates cell density from bound dye.

For the next data set, the system named is Hela (ATCC CCL-2). The data set can be described thus: Monolayer SRB assay, Hela. In kind it is cell-based. The settings on record: Homo sapiens, 72 hrs, HPV18. How it is done: as §1, §2
For the next data set, the system named is HPV16 E7 protein. The data set can be described thus: Western blot of E7 steady state level in CaSki cells. In kind it is cell-based. The settings on record: 10 μM, up to 24 hours. How it is done:
B) For cells in cell culture the following procedure for the preparation of a total cell extract is used. Freshly seeded cells are grown for 24 hours to obtain 65-75% confluency (corresponds for CaSki cells to a plating of approx. 2×10^6 cells/10 cm Ø cell culture dish). Cell culture dishes with medium are out on ice for 5 minutes.
Lysed cells are scraped off the dish and transfers to microcentrifuge tubes, followed by 2×10 sec sonication to complete cell lysis at room temperature. The samples are heated at 96° C. for 10 min and centrifuged for 5 min at 12000 g at room temperature.
Endogenous E7 proteins are rigid, tightly folded molecules and are bound only transiently onto […] membranes during protein blotting procedures, in particular employing semidry methods. Thus, for protein blotting a buffer system containing 40% (v/v) of Methanol is used. These buffers tend to be unstable and therefore freshly prepared solutions need to be used. E7 antibodies are used in TBET at pH7.8. Under these conditions western blot transfer is not complete for most other proteins. If staining of different proteins of the same gel is done, the gel is divided prior to blotting, 40% Methanol is used in the transfer buffer for E7 and a transfer buffer containing 20% Methanol is used for most of the other markers. […]

Data set [2] deals with patient derived SARS-2 Coronavirus (COVID19). The data set can be described thus: Inhibition of Sars-CoV2 replication by RNA qPCR analysis in Vero E6 cells. Format: cell-based, SARS-CoV-2. The settings on record: 7.5 μM, supernatants 3 days after infection, n3. Here is the method:
Vero E6 cells were pre-incubated with the compounds at a concentration of 7.5 μM. The cells were infected with a patient derived SARS-2 Coronavirus (COVID19). Cellular supernatants were collected 3 days after infection and centrifuged at 2000 rpm for 5 min to remove detached cells. Viral RNAs were extracted using a MagNA Pure 24 system (Roche, Germany). SARS-CoV-2 RNA genomes were quantified with the TIB MOLBIOL LightMix Assay SARS-CoV-2 RdRP RTqPCR assay kit with RNA Process Control PCR Kit (Roche). The PCR reaction setup was performed using a BRAND LHS laboratory robot to ensure quality. The amplification was performed with a LightCycler 480 II (Roche). Method used in FIG. 10.
SARV-CoV-2 antiviral activity by of VSP034 and VSP035 (n3; number of repeat of the assay at each condition). The results are shown in for DMSO (1), 7.5 μM VSP034 (2) and 7.5 μM VSP035 (3), y axis logarithmic scale. […] (FIG. 9)
In general terms: In qPCR the cycle at which signal appears reflects the starting amount.

A further data set relates to SARS-CoV-2. As to the kind of experiment: SARS-CoV-2/Huh7-EGFP HTS antiviral Assay (96-well). In kind it is cell-based. The settings on record: Severe acute respiratory syndrome coronavirus 2, Huh-7; sublethal dose of 10 μM, Huh7, n4.
[3] abbreviates: female, NMRI, mouse, blood, mean.

One may read the half-life as the time in which the quantity being followed falls by half. The Tmax is the time from dosing to the highest level. What is called AUC(0-t) is exposure summed from dosing to a finite time, without extrapolation to infinity. As a reminder, the Cmax is the peak of the concentration-time curve. For orientation: EC50 means the concentration that produces a half-maximal response. Higher therefore signals weaker potency. As a reminder, the inhibition is how much of the control response was suppressed. Higher therefore signals a strong effect.

In data set [1] (female, NMRI, mouse, blood), `Cc1ccc(CN2C(=O)c3ccccc3[C@H](C(=O)Nc3cccc(N4CCN(C)CC4)c3)[C@@H]2c2ccc(C(F)(F)F)cc2)cc1` [OC246, N-[3-(4-methylpiperazin-1-yl)phenyl]-2-[(4-methylphenyl)methyl]-1-oxo-3-[4-(trifluoromethyl)phenyl]-1,2,3,4-tetrahydroisoquinoline-4-carboxamide] had a half-life of 2.25 h. Further, in data set [1] (female, NMRI, mouse, blood, Lipoid S100 and Myritol 318, mean), the Tmax worked out at 2 h. Further, in data set [1] (setting [3]), the AUC(0-t) came out at 11500 ng·h/mL and the highest level (Cmax) was 1740 ng/mL. The AUC(0-inf) in data set [1] (female, NMRI, mouse, blood, mean, read-out: AUCinf(obs)) was found to be 11500 ng·h/mL. Moreover, in data set [1] (female, NMRI, mouse, blood, mean, read-out: Clast), the concentration at 24 h was found to be 5.18 ng/mL. In addition, in data set [1], the “AUC% extrapol (obs)” value was 0.146%, the CLobs is 72.38 mL/min/kg, the Vz_obs amounted to 14.073 L/kg and the “λz (terminal elimination rate constant)” value came to 0.309 h⁻¹. The molecule also had a tlast in data set [1] (mean) of 24.00 h. The molecule further had an EC50 in the data set on SiHa (ATCC HTB-35) of 3.53 µM. Further, the EC50 in the data set with Hela (ATCC CCL-2) is 2.68 µM.
In the case of `CN1CCC(CN2C(=O)c3ccccc3[C@H](C(=O)Nc3cccc(N4CCN(C)CC4)c3)[C@H]2c2ccc(C(F)(F)F)cc2)CC1` [VSP035, (3S,4S)-N-[3-(4-methylpiperazin-1-yl)phenyl]-2-[(1-methylpiperidin-4-yl)methyl]-1-oxo-3-[4-(trifluoromethyl)phenyl]-1,2,3,4-tetrahydroisoquinoline-4-carboxamide], the “HPV16 E7 protein level, time course” value with HPV16 E7 protein was “steady decline over time”; in the data set on HPV16 E7 protein (listed as Vsp035) it was “stable e7 reduction”. For the same molecule, the “reduction of virus load as determined by the PCR assay” value in data set [2] is on record as “one order of magnitude”. This molecule came in with an inhibition at 10 µM in the data set with SARS-CoV-2 of 72 ± 7.7%.

The values are drawn from US12630523B2, “Isoquinoline derivatives for use as antiviral and antitumour agents” (priority 2021, dated 2026).
